Reference: PubChem BioAssay AID1259408 (Genetic Toxicology Data Bank (GENE-TOX), 2018)
Active and inactive are the calls of the source. How the calls were made is not given here.

Test system: GENE-TOX genotoxicity assays, various organisms and cells
Experiment: GENE-TOX mutagenicity studies
Conditions: for call: Assay Type: In vivo carcinogenicity studies
[1] = Species/Cell Type: Escherichia coli polA (W3119 vs P3478), Assay Type: Rec-assay, DNA effects (bacterial DNA repair), Assay Code: RE1-, Evaluation Type: Evaluation A (Pre-1980)
[2] = Species/Cell Type: Human diploid fibroblasts, Assay Type: Unscheduled DNA synthesis (UDS) in vitro, DNA effects, Assay Code: UDH-, Evaluation Type: Evaluation A (Pre-1980)
[3] = Species/Cell Type: Saccharomyces cerevisiae, Assay Type: Mitotic recombination or gene conversion, Assay Code: YEH-, Evaluation Type: Evaluation A (Pre-1980)
[4] = Species/Cell Type: Escherichia coli polA (W3119 vs P3478), Assay Type: Rec-assay, DNA effects (bacterial DNA repair), Assay Code: RE1+, Evaluation Type: Evaluation A (Pre-1980)
[5] = Species/Cell Type: Salmonella typhimurium (one or more of the five standard strains: TA98, TA100, TA1535, TA1537, and TA1538), Assay Type: Histidine reverse gene mutation, Ames assay, Assay Code: SAL+*, Activation: With metabolic activation, Evaluation Type: Evaluation A (Pre-1980)
[6] = Species/Cell Type: Drosophila melanogaster, Assay Type: Aneuploidy, whole sex chromosome loss, chromosome aberrations, Assay Code: DAC-M, Evaluation Type: Evaluation A (Pre-1980)
[7] = Species/Cell Type: Salmonella typhimurium (one or more of the five standard strains: TA98, TA100, TA1535, TA1537, and TA1538), Assay Type: Histidine reverse gene mutation, Ames assay, Assay Code: SAL+, Evaluation Type: Evaluation A (Pre-1980)
[8] = Species/Cell Type: Salmonella typhimurium, Assay Type: Forward and reverse gene mutation, host-mediated assay, Assay Code: HMA-, Evaluation Type: Evaluation A (Pre-1980)
[9] = Species/Cell Type: Syrian hamster embryo (SHE) cells, Assay Type: Cell transformation, clonal assay, Assay Code: CTC+, Evaluation Type: Evaluation A (Pre-1980)
[10] = Species/Cell Type: Nonhuman, Assay Type: Sister-chromatid exchange (SCE) in vivo, Assay Code: SC3T, Evaluation Type: Evaluation B (Post-1980)
[11] = Species/Cell Type: Allium cepa, Assay Type: Chromosome aberrations, Assay Code: ALC+, Evaluation Type: Evaluation A (Pre-1980)
[12] = Species/Cell Type: Salmonella typhimurium (one or more of the five standard strains: TA98, TA100, TA1535, TA1537, and TA1538), Assay Type: Histidine reverse gene mutation, Ames assay, Assay Code: SALT, Evaluation Type: Evaluation A (Pre-1980)
[13] = Species/Cell Type: Nonhuman, Assay Code: CCG+L, Evaluation Type: Evaluation A (Pre-1980)
[14] = Species/Cell Type: Human, Assay Type: Sister-chromatid exchange (SCE) in vitro, Assay Code: SC1+D, Dose Response: With dose response, Evaluation Type: Evaluation B (Post-1980)
[15] = Species/Cell Type: Chinese hamster lung (V79) cells, Assay Type: Forward gene mutation at the HPRT or ouabain locus, Assay Code: V79-, Evaluation Type: Evaluation A (Pre-1980)
[16] = Species/Cell Type: Nonhuman, Assay Code: CCGT, Evaluation Type: Evaluation A (Pre-1980)
[17] = Species/Cell Type: Nonhuman, Assay Type: Sister-chromatid exchange (SCE) in vitro, Assay Code: SC2+D, Dose Response: With dose response, Evaluation Type: Evaluation B (Post-1980)
[18] = Species/Cell Type: Bacillus subtilis (H17 vs M45T), Assay Type: Rec-assay, spot test, DNA effects (bacterial DNA repair), Assay Code: REXT, Evaluation Type: Evaluation A (Pre-1980)
[19] = Species/Cell Type: Human lymphocytes, Assay Type: Sister-chromatid exchange (SCE) in vitro, Assay Code: SCL+D, Dose Response: With dose response, Evaluation Type: Evaluation B (Post-1980)

In the case of `CCC(=O)Nc1ccc(Cl)c(Cl)c1`, the mutagenic call (Species/Cell Type: Aspergillus nidulans, Assay Type: Forward gene mutation, Assay Code: ASF-, Evaluation Type: Evaluation A (Pre-1980)) is reported as “inactive; negative”, the mutagenic call (Species/Cell Type: Bacillus subtilis (H17 vs M45), Assay Type: Rec-assay, spot test, DNA effects (bacterial DNA repair), Assay Code: REW+, Evaluation Type: Evaluation A (Pre-1980)) is reported as “active; positive” and the mutagenic call [1] is reported as “inactive; negative”. For the same compound, the mutagenic call [2] was “inactive; negative”, the mutagenic call [3] was “inactive; negative” and the mutagenic call (Species/Cell Type: Salmonella typhimurium (one or more of the five standard strains: TA98, TA100, TA1535, TA1537, and TA1538), Assay Type: Histidine reverse gene mutation, Ames assay, Assay Code: SAL-, Evaluation Type: Evaluation A (Pre-1980)) was “inactive; negative”.
In the case of `CC1(C)C(C=C(Cl)Cl)C1C(=O)OCc1cccc(Oc2ccccc2)c1` (stereo not drawn), the mutagenic call [2] is reported as “inactive; negative” and the mutagenic call [3] is reported as “inactive; negative”.
For `OC1c2ccccc2C2OC2[C@H]1O` (stereo partly drawn), the mutagenic call [4] was “active; positive”.
For `CC(=O)NN`, the mutagenic call (Species/Cell Type: Mammalian polychromatic erythrocytes, Assay Type: Micronucleus test, chromosome aberrations, Assay Code: MNT+U, Dose Response: Unconfirmed positive response, Evaluation Type: Evaluation B (Post-1980)) was “active; positive”.
In the case of `Cc1cccc2ccc3c4ccccc4ccc3c12`, the mutagenic call [5] is reported as “active; positive”.
In the case of `NCC(=O)CCC(=O)O`, the mutagenic call (Species/Cell Type: Rodents, Sex: Male, Assay Type: Dominant lethal test, Assay Code: DLT-, Evaluation Type: Evaluation A (Pre-1980)) is reported as “inactive; negative”.
For `c1ccc(NNc2ccccc2)cc1`, the call (Species/Cell Type: Nonhuman, Assay Code: CCG+, Evaluation Type: Evaluation A (Pre-1980)) was “active; positive”.
For `Nc1ncnc2c1ncn2[C@@H]1O[C@H](COP(=O)(O)OP(=O)(O)OP(=O)(O)O)[C@@H](O)[C@H]1O`, the mutagenic call [6] was “inactive; negative”.
With `CCOS(=O)(=O)c1ccc(C)cc1` the mutagenic call [4] was “active; positive”, the mutagenic call (Species/Cell Type: Human diploid fibroblasts, Assay Type: Unscheduled DNA synthesis (UDS) in vitro, DNA effects, Assay Code: UDH+, Evaluation Type: Evaluation A (Pre-1980)) was “active; positive” and the mutagenic call (Species/Cell Type: Saccharomyces cerevisiae, Assay Type: Mitotic recombination or gene conversion, Assay Code: YEH+, Evaluation Type: Evaluation A (Pre-1980)) was “active; positive”. For the same compound, the mutagenic call [7] was “active; positive”, the mutagenic call [8] was “inactive; negative” and the mutagenic call [9] was “active; positive”.
For `Cc1ccc(S(=O)(=O)NC(=O)NN2CCCCCC2)cc1`, the mutagenic call [10] was “no conclusion”.
`O=C1CCC(N2C(=O)c3ccccc3C2=O)C(=O)N1` (stereo not drawn) was tested, and the mutagenic call [11] was “active; positive”, the mutagenic call (Species/Cell Type: Drosophila melanogaster, Assay Type: Aneuploidy, partial sex chromosome loss, chromosome aberrations, Assay Code: DAP-M, Evaluation Type: Evaluation A (Pre-1980)) was “inactive; negative” and the mutagenic call (Species/Cell Type: Drosophila melanogaster, Assay Type: Aneuploidy, sex chromosome gain, chromosome aberrations, Assay Code: DAG-M, Evaluation Type: Evaluation A (Pre-1980)) was “inactive; negative”. For the same compound, the mutagenic call [6] was “inactive; negative”, the mutagenic call (Species/Cell Type: Mouse, Sex: Male, Assay Type: Sperm morphology, Assay Code: SPI-, Evaluation Type: Evaluation A (Pre-1980)) was “inactive; negative” and the mutagenic call [8] was “inactive; negative”. The mutagenic call (Species/Cell Type: Vicia faba, Assay Type: Chromosome aberrations, Assay Code: VIC+, Evaluation Type: Evaluation A (Pre-1980)) was “active; positive”.
`NCC[C@H](O)C(=O)N[C@@H]1C[C@H](N)[C@@H](O[C@H]2O[C@H](CN)[C@@H](O)[C@H](O)[C@H]2O)[C@H](O)[C@H]1O[C@H]1O[C@H](CO)[C@@H](O)[C@H](N)[C@H]1O` was tested, and the mutagenic call [3] was “inactive; negative”.
For `CO[C@@H]1C[C@](C)(O)Cc2cc3c(c(O)c21)C(=O)c1c(O)cc2c(c1C3=O)O[C@@H]1O[C@@]2(C)[C@H](O)[C@@H](N(C)C)[C@@H]1O`, the mutagenic call (Species/Cell Type: Mammalian polychromatic erythrocytes, Assay Type: Micronucleus test, chromosome aberrations, Assay Code: MNT+, Evaluation Type: Evaluation B (Post-1980)) was “active; positive” and the mutagenic call (Species/Cell Type: Nonhuman, Assay Type: Sister-chromatid exchange (SCE) in vitro, Assay Code: SC2+, Evaluation Type: Evaluation B (Post-1980)) was “active; positive”.
With `CC(=O)Nc1ccc([C@@H]2O[C@@H]2c2ccccc2)cc1` the mutagenic call [12] was “no conclusion”.
`[Cd]` was tested, and the mutagenic call (Species/Cell Type: Human lymphocytes or leukocytes, Assay Type: Chromosome aberrations in vivo, Assay Code: CY8T, Evaluation Type: Evaluation A (Pre-1980)) was “no conclusion” and the call [13] was “active; positive”.
For `CCC(Cc1c(I)cc(I)c(N)c1I)C(=O)O` (stereo not drawn), the mutagenic call (Species/Cell Type: Human lymphocytes, Assay Type: Sister-chromatid exchange (SCE) in vitro, Assay Code: SCLT, Evaluation Type: Evaluation B (Post-1980)) was “no conclusion” and the mutagenic call (Species/Cell Type: Human, Assay Type: Sister-chromatid exchange (SCE) in vitro, Assay Code: SC1T, Evaluation Type: Evaluation B (Post-1980)) was “no conclusion”.
`COc1nc(OC)nc(N2CC2)n1` was tested, and the mutagenic call [11] was “active; positive”.
In the case of `CC1=C(/C=C/C(C)=C/C=C/C(C)=C\C(=O)O)C(C)(C)CCC1`, the mutagenic call [14] is reported as “active; positive”.
In the case of `O[C@H]1c2ccccc2-c2cc3ccccc3cc2[C@@H]1O`, the mutagenic call [15] is reported as “inactive; negative”, the mutagenic call (Species/Cell Type: Mouse prostate cells, Assay Type: Cell transformation, Assay Code: CTM-, Evaluation Type: Evaluation A (Pre-1980)) is reported as “inactive; negative” and the call [16] is reported as “no conclusion”. For the same compound, the mutagenic call [17] was “active; positive”, the mutagenic call [12] was “no conclusion” and the mutagenic call [9] was “active; positive”.
In the case of `CCN(CC)c1ccc2c(-c3ccccc3C(=O)O)c3ccc(=[N+](CC)CC)cc-3oc2c1`, the mutagenic call [18] is reported as “no conclusion”, the mutagenic call (Species/Cell Type: Drosophila melanogaster, Assay Type: Sex-linked recessive lethal gene mutation, Assay Code: SRLT, Evaluation Type: Evaluation A (Pre-1980)) is reported as “no conclusion” and the call [16] is reported as “no conclusion”. For the same compound, the mutagenic call [10] was “no conclusion”, the mutagenic call (Species/Cell Type: Saccharomyces cerevisiae, Assay Type: Mitotic recombination or gene conversion, Assay Code: YEC-, Evaluation Type: Evaluation A (Pre-1980)) was “inactive; negative” and the mutagenic call [5] was “active; positive”.
In the case of `COc1ccc2nc3cc(Cl)ccc3c(NCCNCCCl)c2c1`, the mutagenic call (Species/Cell Type: Chinese hamster ovary (CHO) cells, Assay Type: Forward gene mutation at the HPRT locus, Assay Code: CHO+, Evaluation Type: Evaluation B (Post-1980)) is reported as “active; positive”.
With `NC[C@H]1O[C@H](O[C@H]2[C@H](O)[C@@H](O[C@H]3O[C@H](CO)[C@@H](O)[C@H](N)[C@H]3O)[C@H](N)C[C@@H]2N)[C@H](O)[C@@H](O)[C@@H]1O` the mutagenic call [18] was “no conclusion”, the mutagenic call [1] was “inactive; negative” and the mutagenic call [3] was “inactive; negative”.
In the case of `Oc1cc2cccc3ccc4cc5ccccc5c1c4c32`, the mutagenic call [15] is reported as “inactive; negative”, the call [13] is reported as “active; positive” and the mutagenic call [12] is reported as “no conclusion”.
For `OC(CCl)OC(O)CCl` (stereo not drawn), the mutagenic call [7] was “active; positive”.
For `OCCS`, the mutagenic call [17] was “active; positive”.
In the case of `COc1cccc2c1cc([N+](=O)[O-])c1c(C(=O)O)cc3c(c12)OCO3`, the mutagenic call [19] is reported as “active; positive” and the mutagenic call [14] is reported as “active; positive”.
With `CCCN1CCN(c2ccc([N+](=O)[O-])c3no[n+]([O-])c23)CC1` the mutagenic call [7] was “active; positive”.
`c1cc2ccc3ccc4c5c(c6c(c1CCC6)c2c35)CCC4` was tested, and the mutagenic call [12] was “no conclusion”.
With `ClC(Br)Br` the mutagenic call [19] was “active; positive”, the mutagenic call [14] was “active; positive” and the mutagenic call (Species/Cell Type: Nonhuman, Assay Type: Sister-chromatid exchange (SCE) in vivo, Assay Code: SC3+D, Dose Response: With dose response, Evaluation Type: Evaluation B (Post-1980)) was “active; positive”.
With `CC1C(=O)OC2CC[N+]3([O-])CC=C(COC(=O)C(C)(O)C1(C)O)C23` (stereo not drawn) the mutagenic call (Species/Cell Type: Drosophila melanogaster, Assay Type: Sex-linked recessive lethal gene mutation, Assay Code: SRL+, Evaluation Type: Evaluation A (Pre-1980)) was “active; positive”.
In the case of `CCCCN(CC(=O)O)N=O`, the mutagenic call [12] is reported as “no conclusion”.
